Test results from patent publication US11447638B2, “Acetalanthraquinone derivatives useful for cellular staining” (BIOSTATUS LIMITED, priority 2016, dated 2022).

Key:
[1] = Absorption and fluorescence spectra of compounds in PBS or HEPES; type: physicochemical; details: for fluorescence emission, 540 nm (Ex in PBS): excited at 540 nm
Experimental: The compounds were exited at 540 nm and at the wavelength of their absorption peak 1 (λ1 nm). The far-red fluorescent DNA dye DRAQ5 was used as reference.
Compounds were dissolved in DMSO (Sigma) to 20 mM stock concentration. DRAQ5 (Biostatus Ltd) was used as a control anthraquinone agent dissolved in deionised water. Working solutions were prepared in PBS (phosphate buffered saline; Sigma) or HEPES (4-(2-hydroxyethyl)-1-piperazineethanesulfonic acid; Sigma) at 20 or 40 μM. Probe solutions (20 μM), respectively in PBS or HEPES, were pipetted into a 1 mL quartz cuvette (Thermo Fisher Scientific). After obtaining baseline spectra in relevant buffer to zero the instrument, absorbance measurements were obtained using a Beckmann Coulter DU 800 UV/Visible spectrophotometer. The excitation wavelengths were scanned from 280 to 800 nm. Fluorescent spectral scans were performed using a Perkin Elmer LS-50B Luminescence spectrophotometer. To obtain emission scans, the excitation wavelength was set accordingly to the maximum values for each agent or another designated excitation wavelength that matches typical laser lines; and the emission wavelength were scanned from 400 nm to 900 nm in 1 nm increments. A Xenon flash lamp was used as the light source, with the lamp energy set to high. For each data point ten measurements were acquired with the photomultiplier tube sensitivity set at 125.
Compounds were excited at a wavelength corresponding to the first absorbance peak 1 (FIG. 1A and FIG. 1B show absorption (line) and fluorescence (dots) spectra of compounds; both are normalised to peak value.

[2] = system: fixed human osteosarcoma U-2 OS cells; experiment: Labelling of fixed cells, wide-field fluorescence microscopy; type: cell-based; details: 20 μM, 1 h exposure in PBS, FIG. 2
Experimental: Cells were seeded in a 24 well coverslip bottomed-plate, cultured overnight in McCoys media. 24 or 48 hours later the cells were washed gently with 3×2 mL PBS per well. The PBS was removed and 0.5 mL of 4% paraformaldehyde solution [a 4% paraformaldehyde solution in PBS was made fresh each time from a 16% stock solution (Thermo Fisher Scientific)] was added in each well and cells were incubated for 30 min. The paraformaldehyde was removed and cells were washed 3×2 mL PBS per well. 1 mL of PBS or HEPES was added to each well.
(§1) Before analysis, cells were incubated at 37° C. in the dark for the period designated. Samples were analysed directly without any further washing step. For live cell labelling cells were seeded, plated in a similar way, into a similar multi-well dish for optimal optical performance and could be used across all microscope platforms.
(§2) This basic protocol was the standard for testing the patterns of AAQ agents at 20 μM, compared to 20 μM of DRAQ5 as the benchmark reference (both in terms of cellular location and ability to detect the red fluorescence).
Low resolution wide-field fluorescence microscopy was used to evaluate cell labelling in fixed human osteosarcoma U-2 OS cells. The system was an Axiovert 100 microscope (Carl Zeiss, Welwyn Garden City, UK) ×10 0.3 NA air objective lens and an ORCA-ER CCD camera (Hamamatsu, Reading, UK). Illumination was controlled by a shutter in front of the transmission lamp. Image capture was controlled using Metamorph software. This evaluates the ability of the compounds to label cellular compartments without active uptake or efflux prohibiting delivery into the given cell. Image collection was performed after 1 h of exposure to probes in PBS. The calibration bar represents 50 μm.

A549 live cells = experiment: Loading of A549 live cells, wide-field fluorescence microscopy; type: cell-based, human; details: 20 μM, 30 min incubation, FIG. 3
Experimental: as §1, §2
Low resolution wide-field fluorescence microscopy was used to evaluate cell uptake and localisation of the probe compounds. The system was an Axiovert 100 microscope (Carl Zeiss, Welwyn Garden City, UK) ×10 0.3 NA air objective lens and an ORCA-ER CCD camera (Hamamatsu, Reading, UK). Illumination was controlled by a shutter in front of the transmission lamp. Image capture was controlled using Metamorph software. Human non-small cell lung cancer A549 cell line was used as the cell model to determine whether variation of the probe loading and localisation occurred in cell population sustaining a “side population” (SP) (Smith P J, Wiltshire M, Chappell S C, Cosentino L, Burns P A, Pors K, Errington R J. Kinetic analysis of intracellular Hoechst 33342—DNA interactions by flow cytometry: misinterpretation of side population status? Cytometry A 2013; 83:161-9) with a known capacity to efflux xenobiotic molecules, including the DNA dye Hoechst 33342.
Cells were incubated for 30 min with each compound and then images were collected at a 30 ms exposure time using low resolution wide-field fluorescence microscopy. Using an Axiovert 100 microscope (Carl Zeiss, Welwyn Garden City, UK) ×10 0.3 NA air objective lens and an ORCA-ER CCD camera (Hamamatsu, Reading, UK). Illumination was controlled by a shutter in front of the transmission lamp. Image capture was controlled using Metamorph software. The calibration bar represents 50 μm.

2780/cp70 = experiment: Further tests against cell lines, 2780/cp70; type: cell-based; details: ratio to A2780
MCP1 = experiment: Further tests against cell lines, MCP1; type: cell-based; details: ratio to A2780
Experimental: (§3) Further tests were carried out against A2780, 2780AD and MCP1 cell lines.

2780AD = experiment: Further tests against cell lines, 2780AD; type: cell-based; details: ratio to A2780
Experimental: as §3

U-2 OS cells = experiment: Confocal laser scanning microscopy (CLSM) localisation analysis; type: cell-based, human; details: 30 min incubation, Ex 637 nm, Em >665 nm, FIG. 4 and 5
Experimental: Confocal laser scanning microscopy (CLSM) was used to analyse the localisation of compounds BST-100, BST-101 and BST-106 with the U-2 OS cells, as it permitted the acquisition of volume limited optical sections through the cell and media. Excitation (637 nm) and emission (>665 nm) values for the probe analysis were the optimal conditions. The data sets obtained were processed and assembled into a single maximum projection image.
The patterns were analysed after 30 min incubation at different z depths and eliminating the solution background. The nucleus/cytoplasm ratio was calculated to quantify the localisation of the probe per cell.
A Radiance CLSM (BioRad Microscience) was used attached to an inverted Nikon microscope. Image acquisition was performed using excitation (637 nm) and emission (>665 nm) wavelengths. The histogram plot reports the nucleus/cytoplasm index to determine DNA binding in live cells. The calibration bar represents 10 μm.
The compounds BST-108, BST-109 were analysed in the same way.

A549 cells = experiment: Pulse exposure to probes, time-lapse, reimaged after 72 h; type: cell-based, human; details: 20 uM for 15 mins, washout, T=72 h
Experimental: In this regard, A549 cells were seeded in a 24 well coverslip bottomed-plate, cultured overnight in McCoys media for 24 or 48 hours. The plates were placed onto an inverted automated microscope, with the capacity for acquiring an image sequence of different wells (therefore exposure to different agent labelling). An Axiovert 100 microscope (Carl Zeiss, Welwyn Garden City, UK) was fitted with an incubator for 37° C./5% CO2 maintenance (Solent Scientific, Portsmouth, UK), and an ORCA-ER CCD camera (Hamamatsu, Reading, UK). Illumination was controlled by a shutter in front of the transmission lamp, and an x, y positioning stage with separate z-focus (Prior Scientific, Cambridge, UK) controlled multi-field acquisition. Image capture was controlled using Metamorph software.
Cells were exposed to a constant dose (0-5 μM) or a pulsed dose of 0 or 20 μM agent for 15 minutes followed by washout with warmed full media.
All images were collected with a ×10 (PH1) apochromat objective lens providing a field size of 500 times 500 microns. In this case a phase contrast image was collected every 30 minutes for 72 hours. Single cell growth and expansion can be tracked over time. The cells were harvested and run through a flow cytometry (typically a FACS Calibur 635 nm excitation/661/16 emission).
A549 cells were loaded with 20 uM BST-101, BST-109 or BST-110 for 15 mins followed by washout. Cells were then time-lapsed and reimaged after T=72 h, as before, […]

MCF7 = experiment: MTT cellular viability (growth inhibition) assay, MCF7; type: cell-based; details: Homo sapiens, 0.25-100 μM, 72 h, Table 3
Experimental: (§4) The viability of A549 or MCF7 in response to compounds was determined using the MTT (3-(4,5-dimethylthiazolyl-2-)-2, 5-diphenyltetrazolium bromide) assay according to the protocol set out in Mosmann T., Rapid colorimetric assay for cellular growth and survival: application to proliferation and cytotoxicity assays. Journal of immunological methods 1983; 65:55-63.
(§5) Initially, cells were seeded into a rounded-bottom 96 well plate (Corning) at six different cell seeding densities (0.5×104, 1×104, 2×104, 3×104, 4×104, and 5×104) per mL of R10 media (cells/mL) in order to optimise the assay and establish the most suitable seeding assay. Concentration of 1×10^4 cells/mL was determined to be the optimum seeding density for both cell lines for 96 h total incubation. A control lane contained supplemented R10 only. The 96 well plates were incubated overnight at 37° C., 5% CO2 and 100% humidity to allow cell adhesion. Cells were then treated respectively with novel AAQs (0.25-100 μM) or growth inhibition (IC50) of compounds of the invention was studied against MCF7 and A549 cancer cell lines. Compounds were tested with a concentration range between 0.25 and 100 μM for 72 h and doxorubicin, as positive cytotoxic control, was tested in parallel at the same doses.

A549 = experiment: MTT cellular viability (growth inhibition) assay, A549; type: cell-based; details: Homo sapiens, 0.25-100 μM, 72 h, Table 3
Experimental: as §4, §5

Row | SMILES | fluorescence emission, 540 nm (Ex in PBS) ([1]; PBS, 20 μM) [nm] | fluorescence emission, λ1 nm (Ex in HEPES) ([1]; excited at absorption peak 1 (λ1), HEPES, 20 μM) [nm] | fluorescence emission, λ1 nm (Ex in PBS) ([1]; excited at absorption peak 1 (λ1), PBS, 20 μM) [nm] | fluorescence brightness / background in fixed cells [2] | staining pattern in fixed cells [2] | staining pattern in live cells (A549 live cells) | RF (2780/cp70) | RF (MCP1) (MCP1) | RF (2780AD) | peak excitation wavelength ([1]; excitation wavelength used for fluorescence spectra of FIG. 1A/1B) [nm] | subcellular localisation by CLSM (U-2 OS cells) | cell division and signal retention / location after pulse exposure (A549 cells) | IC50 (MCF7) [µM] | IC50 (A549) [µM]
1 | COC(CNCCNc1ccc(NCCNCC(OC)OC)c2c1C(=O)c1c(O)ccc(O)c1C2=O)OC [BST-200, 1,4-bis((2-((2,2-dimethoxyethyl)amino)ethyl)amino)-5,8-dihydroxyanthracene-9,10-dione] | 690 | 684 | 688 | very bright fluorescence | cytoplasmic staining, good object recognition, and some heterogeneity on nuclear staining | heterogeneity on cytoplasmic load on, with bright fluorescence signal and staining of mitotic figures | 0.09 | 0.26 | 2.9 | – | – | – | – | –
2 | COC(CCCCNc1ccc(NCCCCC(OC)OC)c2c1C(=O)c1ccccc1C2=O)OC [BST-101, 1,4-Bis(5,5-dimethoxypentylamino)anthracene-9,10-dione] | 712 | – | – | – | diffuse cytoplasmic staining, with some perinuclear and nucleoli labelling | heterogeneous cytoplasmic staining | – | – | – | 540 | low levels of probe in the perinuclear region, with probable overload in Golgi body and large vesicles | dividing, and signal retained in the same membrane compartment as at the start | 0.75 | > 100
